In US8557805B2, “Fused ring compound and use thereof” (Takeda Pharmaceutical Company Limited, priority 2008, dated 2013):
pEC50: −log10 of the molar value.

How the values were obtained:
[1] = target: T1, human liver GK (GST-hLGK1) (Homo sapiens, UniProt P35557); experiment: Determination of GK activity value (Mant-ATP to Mant-ADP conversion, capillary electrophoresis); type: biochemical; details: reaction started with 25 mM D-glucose solution, 37° C., 60 min, concentration at midpoint between maximum activity value and control group activity value
T1 construct: with a BamHI site added to immediately before the initiation codon; made in house; host or cells: Escherichia coli BL21 (Stratagene), plasmid pGEX6P-2/hLGK1
T1 sequence (P35557 1-464 isoform P35557-3): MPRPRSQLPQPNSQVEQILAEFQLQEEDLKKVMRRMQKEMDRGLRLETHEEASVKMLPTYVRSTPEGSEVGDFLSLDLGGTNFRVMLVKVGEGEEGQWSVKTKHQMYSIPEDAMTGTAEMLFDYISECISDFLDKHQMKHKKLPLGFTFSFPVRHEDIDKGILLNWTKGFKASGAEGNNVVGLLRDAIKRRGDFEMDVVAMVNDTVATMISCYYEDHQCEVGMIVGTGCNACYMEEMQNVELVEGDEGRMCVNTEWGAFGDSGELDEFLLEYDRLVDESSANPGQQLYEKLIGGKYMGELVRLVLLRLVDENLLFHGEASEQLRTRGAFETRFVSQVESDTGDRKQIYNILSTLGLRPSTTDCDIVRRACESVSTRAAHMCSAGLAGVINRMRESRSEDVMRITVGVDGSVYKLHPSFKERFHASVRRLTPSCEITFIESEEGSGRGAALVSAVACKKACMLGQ
Description: Plasmid DNA to be used for the expression of a protein (GST-hLGK1) containing GST (Glutathione S-transferase) added to the amino terminal of human liver GK in Escherichia coli was prepared as follows.
First, PCR was performed using human liver cDNA (Marathon Ready cDNA, Clontech Laboratories, Inc.) as a template and two kinds of synthetic DNAs (5′-[…]-3′ (SEQ ID NO: 1) and 5′-[…]-3′ (SEQ ID NO: 2)), and the obtained DNA fragment was closed using a TOPO TA Cloning Kit (Invitrogen Corporation). PCR was performed using the obtained plasmid DNA as a template and a synthetic DNA (5′-[…] CAGAG-3′ (SEQ ID NO: 3)) with a BamHI site added to immediately before the initiation codon, and a synthetic DNA (5′-[…]-3′ (SEQ ID NO: 4)) with an EcoRI site added to immediately after the stop codon. The obtained DNA fragment was subcloned to pGEX6P-2 (Amersham Biosciences K.K.) cleaved with BamHI and EcoRI to give a plasmid (pGEX6P-2/hLGK1) for expression of human liver GK.
BL21 strain (Stratagene) transformed with pGEX6P-2/hLGK1 obtained in (1) was cultured with shaking at 37° C. for 14 hr in a 200 ml Erlenmeyer flask containing 50 ml of 100 μg/ml ampicillin-containing LB medium. The culture medium (25 ml) was diluted with 225 ml of 100 μg/ml ampicillin-containing LB medium, and further cultured with shaking at 37° C. for 1 hr in a 1 L Erlenmeyer flask. After culture, the Erlenmeyer flask was cooled on ice, 125 μL of 100 mM isopropyl-thio-β-D-galactopyranoside (IPTG) was added (final concentration 50 μM), and cultured at 17° C. for 20 hr. The culture medium was centrifuged, and the obtained fungus was disrupted by ultrasonication. The object protein (GST-hLGK1) was purified from the supernatant using Glutathione Sepharose 4B (Amersham Biosciences K.K.).
A solution (5 μL) of test compound in 50% dimethyl sulfoxide was added to each well of 384 well black plate (Nalge Nunc International K.K.). Then, a solution (35 μL) obtained by diluting GST-hLGK1 obtained in (2) with measurement buffer (containing 50 mM HEPES (pH 7.4), 200 mM KCl, 5 mM MgCl2, 2.5 mM DTT and 50 μM 2′-(or-3′)-O—(N-methylanthraniloyl)adenosine 5′-triphosphate (Mant-ATP) (Jena Bioscience GmbH)) to 6 μg/mL was added to each well.
Each well was stood at 37° C. for 10 min, and 25 mM D-glucose solution (10 μL) was added to start the reaction.
Each well after the reaction was stood at 37° C. for 60 min, and the reaction was quenched by adding 25 μL of a quenching solution (containing 200 mM HEPES (pH 7.4), 20 mM MgCl2, 200 mM EDTA, 0.03% Triton-X 100, 0.3% Coating 3 reagent (Caliper Life Sciences, Inc.)).
2′-(or -3′)-O—(N-methylanthraniloyl)adenosine 5′-triphosphate (Mant-ATP, substrate) and Mant-ADP (reaction resultant product) were separated from each well after the reaction by a microchip type capillary electrophoresis apparatus 250 HTS (Caliper Life Sciences, Inc.). The reaction rate [(reaction resultant product peak height)/(reaction resultant product peak height+substrate peak height)×100(%)] was calculated from the ratio of the substrate peak height and reaction resultant product peak height obtained by fluorescence detection (excitation wavelength 355 nm, measurement wavelength 460 nm) and used as the index of GK activity.
3.5 As a control group, the reaction rate was calculated in the same manner as above except that “solution in 50% dimethyl sulfoxide (without test compound)” was used instead of “solution of test compound in 50% dimethyl sulfoxide”.
A concentration dependency curve of the test compound was drawn with the percentage obtained by dividing the reaction rate of the well added with the test compound (test compound addition group) by the reaction rate of the control group was taken as the GK activity value of the test compound, and the concentration of the test compound at the midpoint between the maximum activity value of the test compound addition group and the control group activity value is shown as EC50 value.

| Structure (SMILES) | pEC50 [1] | melting point |
| --- | --- | --- |
| CS(=O)(=O)c1ccc(Oc2ccc3[nH]c(C4=NCC(CC(=O)N5CCOCC5)S4)cc3c2)cn1 (centres unmarked) [Example 58, 5-{[6-(Methylsulfonyl)pyridin-3-yl]oxy}-2-[5-(2-morpholin-4-yl-2-oxoethyl)-4,5-dihydro-1,3-thiazol-2-yl]-1H-indole] | 6.92 | 190 to 191 °C |
| CCc1cc(Oc2ccc(S(C)(=O)=O)nc2)cc2cc(C3=NCC(CC(N)=O)S3)[nH]c12 (centres unmarked) [Example 61, 2-[2-(7-Ethyl-5-{[6-(methylsulfonyl)pyridin-3-yl]oxy}-1H-indol-2-yl)-4,5-dihydro-1,3-thiazol-5-yl]acetamide] | 7.80 | 190 to 191 °C |
| Cc1cc(Oc2ccc(S(C)(=O)=O)nc2)cc2cc(C3=NCC(CC(N)=O)S3)[nH]c12 (centres unmarked) [Example 72, 2-[2-(7-Methyl-5-{[6-(methylsulfonyl)pyridin-3-yl]oxy}-1H-indol-2-yl)-4,5-dihydro-1,3-thiazol-5-yl]acetamide] | 7.54 | 202 to 203 °C |
| CNC(=O)CC1CN=C(c2cc3cc(Oc4ccc(S(C)(=O)=O)nc4)cc(C)c3[nH]2)S1 (centres unmarked) [Example 73, 2-[2-(7-Methyl-5-{[6-(methylsulfonyl)pyridin-3-yl]oxy}-1H-indol-2-yl)-4,5-dihydro-1,3-thiazol-5-yl]-N-methylacetamide] | 7.48 | 183 to 184 °C |
| Cc1cc(Oc2ccc(S(C)(=O)=O)nc2)cc2cc(C3=NCC(CC(=O)N4CCOCC4)S3)[nH]c12 (centres unmarked) [Example 80, 7-Methyl-5-{[6-(methylsulfonyl)pyridin-3-yl]oxy}-2-[5-(2-morpholin-4-yl-2-oxoethyl)-4,5-dihydro-1,3-thiazol-2-yl]-1H-indole] | 7.27 | 152 to 154 °C |
| Cc1cc(Oc2ccc(S(C)(=O)=O)nc2)cc2cc(C3=NCC(CC(=O)N4CC[S+]([O-])CC4)S3)[nH]c12 (centres unmarked) [Example 81, 7-Methyl-5-{[6-(methylsulfonyl)pyridin-3-yl]oxy}-2-{5-[2-(1-oxidothiomorpholin-4-yl)-2-oxoethyl]-4,5-dihydro-1,3-thiazol-2-yl}-1H-indole] | 7.32 | 157 to 160 °C |
| CCc1cc(Oc2ccc(S(C)(=O)=O)nc2)cc2cc(C3=NCC(CC(=O)N4CC[S+]([O-])CC4)S3)[nH]c12 (centres unmarked) [Example 82, 7-Ethyl-5-{[6-(methylsulfonyl)pyridin-3-yl]oxy}-2-{5-[2-(1-oxidothiomorpholin-4-yl)-2-oxoethyl]-4,5-dihydro-1,3-thiazol-2-yl}-1H-indole] | 7.74 | 194 to 196 °C |
